Data reported in patent US20190316211A1, “ONCOGENIC ALTERNATIVE SPLICING SWITCH OF PACE4 IN CANCER” (SOCIETE DE COMMERCIALISATION DES PRODUITS DE LA RECHERCHE …, priority 2016, published 2019).

Key:
PACE4 secretion = PACE4 secretion assay with post-translational modification inhibitors; format: cell-based; conditions: 24 h secretion in presence of agent
From the text: Immunoprecipitations on transiently transfected HEK293-FT cells were subjected to Sequential Window Acquisition of all Theoretical Mass Spectra (SWATH-MS)-based analysis (FIGS. 7F and G). Proteins identified in each pull-down were used to compare enrichment between the two different isoforms. Both isoforms pulled-down endoplasmic reticulum (ER) proteins with similar enrichment. The two isoforms had clearly different patterns when it came to endosomal compartments-associated proteins such as Arf6, Rab13 or Vps16 with PACE4-altCT pull-down displaying the higher enriched levels for these proteins. […] Considering the slight substitution caused by the splicing in the protein primary structure (FIG. 7A), PTM prediction tools were used to evaluate whether distinctive PTM motifs could be found in the alternative C-terminus compared to the FL one. The predicted PTM sites that scored the highest were S-palmitoylation, non-consensual S-farnesylation and S-geranylgeranylation on the Cys cluster added at the C-terminal extremity of the protein ([…]; see FIG. 8A).
For PACE4 secretion assays, cells were plated at equal densities in 6-well plates for 24 h in complete medium. 24 h later, the medium was replaced by the minimal volume required of fresh culture medium (600 μL without FBS) and the cells were either allowed to secrete for the indicated time (for secretion kinetics) or (for inhibitor treatments) allowed to secrete for an additional 24 h in the presence of the indicated concentrations of agents (heparin (Sandoz, Niirnberg, Germany), 2-bromopalmitate (Sigma Aldrich), FTI-277 (Sigma Aldrich), GGTI-2133 (Santa Cruz Biotechnology Inc., Santa Cruz, Calif., USA)

[1] = biological target: growth differentiation factor 15 (human) (UniProt Q99988); assay: cell-based or functional assay
IGF1R = assay: Western blot of PC substrate processing in inhibitor-treated DU145 and LNCaP lines; format: cell-based; conditions: 50 μM, 48 h
Description: (§1) Western blotting were carried out of (i) cell lines silenced with shPACE4, shfurin and shPC7, (ii) cell lines stably expressing PACE4-FL and PACE4-altCT and (iii) cell lines treated with either the non-selective and irreversible PC inhibitor decanoyl-RVKR-chloromethylketone (CMK) or the PACE4 high affinity peptide inhibitor [dLeu]LLLRVK-amidinobenzylamide (Amba; dL-ML-Amba), herein after called C23 (Levesque et al., 2015, Oncotarget, 6: 3680-3693). In order to test the western blot arrays, known PC substrates were chosen, namely, the insulin-like growth factor 1 receptor (IGF1R) and integrin alpha-6 (ITGA6); two well-accepted furin substrates, were evaluated (FIGS. 10A and B) and E-cadherin. […] In contrast, the overexpression of PACE4-FL and PACE4-altCT did increase the processing of IGF1R and ITGA6 pro-forms, highlighting the cautionary interpretation that are needed in overexpression studies.
(§2) For substrates analysis, cell lysates were prepared by plating equal number of cells in p100 mm plates in complete medium. 24 h later, medium was replaced by 6 mL of serum-free fresh medium (with treatment if indicated; 50 μM of dL-ML-Amba or dec-RVKR-CMK (Bachem, Torrance, Calif.) and cells were further incubated 48 h. Medium was then collected and centrifuged at 1,000×g for 10 min at room temperature to remove any floating cells, aliquot of medium were then taken (800 μL), flash-frozen in liquid nitrogen, lyophilized overnight, restituted in 100 μL of Laemmli buffer: 8M urea (1:1) and boiled for 5 min until complete resuspension. 25 μL of concentrated medium were loaded on SDS-PAGE (equivalent of 200 μL of culture medium). Cells were carefully washed with PBS and lysed from cell pellet (resulting from 1,000×g centrifugation) using radio-immunoprecipitation assay buffer (RIPA) as described in (Couture et al., 2012). Samples were incubated 20 min on ice and further centrifuged 30 min at 13.000 rpm at 4° C. Protein concentration was determined by bicinchoninic acid assay (Pierce) to load 15 μg on polyacrylamide gels. […] was used as a loading control, for conditioned media, a Coomassie blue staining was routinely performed to control for protein loading.

ITGA6 = assay: as above; format: cell-based; conditions: 50 μM, 48 h
Description: as §1, §2

GDF-15 in LNCaP cells = assay: GDF-15 cleavage and secretion analysis (western blot, ELISA); format: cell-based; conditions: treated LNCaP cells, western blot array and ELISA
From the text: FIG. 10 illustrates the identification and validation of GDF-15 as a PACE4-specific substrate in prostate cancer cells, showing in (A) Western blots of candidate PC substrates across the knockdown, overexpressing and inhibitor-treated DU145 and LNCaP (B) lines; (C) expression of GDF-15 in DU145 and LNCaP cells showing that mature GDF-15 is secreted in the medium; (D) GDF-15 concentrations in DU145 and LNCaP conditioned medium determined by ELISA; (E) GDF-15 cleavage analysis in the LNCaP cells panel; (F) GDF-15 concentrations in the conditioned medium determined by ELISA; (G) GDF-15 cleavage analysis in LNCaP treated with either the ML-peptide or the cell impermeable analog (PEG8-ML); (H) GDF-15 spanning peptide cleavage by PACE4 and furin monitored by HPLC, cleavage site is underlined in the spanning peptide sequence, peptide identity was confirmed by MALDI-TOF upon collection of associated fractions; (I) Western blot analysis of paired adjacent non-cancerous tissues (ANCT) and prostate tissues (PCa); and (J) a blot showing various cancer grades is shown together with the densitometric analysis of 21 tissues pairs (n=6 (3+3), 7 (3+4), 6 (4+3), 2 (5+X) X being 3 and 4).
GDF-15 is known to supports both the proliferation and clonogenic potential of LNCaP cells, which is also in line with the observed phenotypes for both PACE4 knockdown and overexpressing cells. […]

[2] = biological target: Multi-Leucine (ML) peptide

Chain of growth differentiation factor 15 (human) (Q99988 195-308): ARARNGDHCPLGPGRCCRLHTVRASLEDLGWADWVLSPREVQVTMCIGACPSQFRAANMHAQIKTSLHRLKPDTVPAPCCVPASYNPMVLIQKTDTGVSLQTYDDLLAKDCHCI

Molecule: CCCCCCCCCCCCCCC(Br)C(=O)O (stereo not drawn) [2-BP, 2-bromopalmitate]
- variation in secretion levels (PACE4 secretion): without any significant variation

Molecule: COC(=O)[C@H](CCSC)NC(=O)c1ccc(NC[C@@H](N)CS)cc1-c1ccccc1 [FTI-277]
- variation in secretion levels (PACE4 secretion): without any significant variation

Molecule: CC(C)C[C@H](NC(=O)c1ccc(NCc2cnc[nH]2)cc1-c1cccc2ccccc12)C(=O)O [GGTI-2133]
- variation in secretion levels (PACE4 secretion): without any significant variation

Molecule: PACE4-FL (from UniProt P29122 150-969) (enzyme)
- amount of secreted GDF-15 in conditioned medium (ELISA) (times higher than pLenti6 control cells) [1]: 5

Molecule: [dLeu]LLLRVK-amidinobenzylamide [C23]
- processing of IGF1R pro-form (IGF1R): no effect
- processing of ITGA6 pro-form (ITGA6): no effect
- GDF-15 observed in the medium (GDF-15 in LNCaP cells): virtually no pro-GDF-15 could be observed

Molecule: decanoyl-RVKR-chloromethylketone [CMK]
- processing of IGF1R pro-form (IGF1R): prevented the processing
- processing of ITGA6 pro-form (ITGA6): prevented the processing
- GDF-15 observed in the medium (GDF-15 in LNCaP cells): virtually no pro-GDF-15 could be observed

B1: V5-tagged PACE4-FL (protein)
chain: QVRSDPQALYFNDPIWSNMWYLHCGDKNSRCRSEMNVQAAWKRGYTGKNVVVTILDDGIERNHPDLAPNYDSYASYDVNGNDYDPSPRYDASNENKHGTRCAGEVAASANNSYCIVGIAYNAKIGGIRMLDGDVTDVVEAKSLGIRPNYIDIYSASWGPDDDGKTVDGPGRLAKQAFEYGIKKGRQGLGSIFVWASGNGGREGDYCSCDGYTNSIYTISVSSATENGYKPWYLEECASTLATTYSSGAFYERKIVTTDLRQRCTDGHTGTSVSAPMVAGIIALALEANSQLTWRDVQHLLVKTSRPAHLKASDWKVNGAGHKVSHFYGFGLVDAEALVVEAKKWTAVPSQHMCVAASDKRPRSIPLVQVLRTTALTSACAEHSDQRVVYLEHVVVRTSISHPRRGDLQIYLVSPSGTKSQLLAKRLLDLSNEGFTNWEFMTVHCWGEKAEGQWTLEIQDLPSQVRNPEKQGKLKEWSLILYGTAEHPYHTFSAHQSRSRMLELSAPELEPPKAALSPSQVEVPEDEEDYTAQSTPGSANILQTSVCHPECGDKGCDGPNADQCLNCVHFSLGSVKTSRKCVSVCPLGYFGDTAARRCRRCHKGCETCSSRAATQCLSCRRGFYHHQEMNTCVTLCPAGFYADESQKNCLKCHPSCKKCVDEPEKCTVCKEGFSLARGSCIPDCEPGTYFDSELIRCGECHHTCGTCVGPGREECIHCAKNFHFHDWKCVPACGEGFYPEEMPGLPHKVCRRCDENCLSCAGSSRNCSRCKTGFTQLGTSCITNHTCSNADETFCEMVKSNRLCERKLFIQFCCRTCLLAG
- enzymatic activity (cleavage of the fluorogenic substrate Pyr-Arg-Thr-Lys-Arg-methylcoumaryl-7-amide) [2]: both isoforms were still equally inhibited by the Multi-Leucine (ML) peptide

B2: V5-tagged PACE4-altCT (protein)
chain: QVRSDPQALYFNDPIWSNMWYLHCGDKNSRCRSEMNVQAAWKRGYTGKNVVVTILDDGIERNHPDLAPNYDSYASYDVNGNDYDPSPRYDASNENKHGTRCAGEVAASANNSYCIVGIAYNAKIGGIRMLDGDVTDVVEAKSLGIRPNYIDIYSASWGPDDDGKTVDGPGRLAKQAFEYGIKKGRQGLGSIFVWASGNGGREGDYCSCDGYTNSIYTISVSSATENGYKPWYLEECASTLATTYSSGAFYERKIVTTDLRQRCTDGHTGTSVSAPMVAGIIALALEANSQLTWRDVQHLLVKTSRPAHLKASDWKVNGAGHKVSHFYGFGLVDAEALVVEAKKWTAVPSQHMCVAASDKRPRSIPLVQVLRTTALTSACAEHSDQRVVYLEHVVVRTSISHPRRGDLQIYLVSPSGTKSQLLAKRLLDLSNEGFTNWEFMTVHCWGEKAEGQWTLEIQDLPSQVRNPEKQGKLKEWSLILYGTAEHPYHTFSAHQSRSRMLELSAPELEPPKAALSPSQVEVPEDEEDYTAQSTPGSANILQTSVCHPECGDKGCDGPNADQCLNCVHFSLGSVKTSRKCVSVCPLGYFGDTAARRCRRCHKGCETCSSRAATQCLSCRRGFYHHQEMNTCVTLCPAGFYADESQKNCLKCHPSCKKCVDEPEKCTVCKEGFSLARGSCIPDCEPGTYFDSELIRCGECHHTCGTCVGPGREECIHCAKNFHFHDWKCVPACGEGFYPEEMPGLPHKVCRRCDENCLSCAGSSRNCSRCKTGFTQLGTSCITNHTCSNGDIWQRLETFWVVTTGRMYSHPVGGGQECC
- enzymatic activity (cleavage of the fluorogenic substrate Pyr-Arg-Thr-Lys-Arg-methylcoumaryl-7-amide) [2]: both isoforms were still equally inhibited by the Multi-Leucine (ML) peptide
